Source: ChEMBL document CHEMBL1133937, “New 1-aryl-4-(biarylmethylene)piperazines as potential atypical antipsychotics sharing dopamine D(2)-receptor and serotonin 5-HT(1A)-receptor affinities” (Bioorg Med Chem Lett, 2001)

Legend:
[1] = molecular target: T1, 5-hydroxytryptamine receptor 1A (Homo sapiens, UniProt P08908); assay: Binding affinity for 5-hydroxytryptamine 1A receptor determined using [3H]8-OH-DPAT as radioligand
T1 sequence (P08908 whole entry): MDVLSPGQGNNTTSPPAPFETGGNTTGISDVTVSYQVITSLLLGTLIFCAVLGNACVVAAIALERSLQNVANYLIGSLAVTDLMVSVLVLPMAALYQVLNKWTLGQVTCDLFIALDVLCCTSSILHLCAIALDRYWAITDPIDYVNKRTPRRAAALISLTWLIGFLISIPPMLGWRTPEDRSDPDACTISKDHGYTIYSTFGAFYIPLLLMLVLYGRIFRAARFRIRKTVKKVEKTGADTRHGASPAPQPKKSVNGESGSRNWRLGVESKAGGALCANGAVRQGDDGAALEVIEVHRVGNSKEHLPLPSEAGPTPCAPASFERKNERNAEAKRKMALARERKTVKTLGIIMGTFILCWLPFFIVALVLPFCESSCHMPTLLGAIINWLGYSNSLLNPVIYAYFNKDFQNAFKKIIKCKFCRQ

[2] = tested on: Mus musculus; assay: In vivo inhibition of the apomorphine-induced climbing behavior in mice; format: functional
[3] = tested on: Rattus norvegicus; assay: Tested for occurrence of lower lip retraction in rat after po administration of the compound; format: functional
[4] = tested on: Rattus norvegicus; assay: In vivo suppression of the conditioned avoidance response (CAR) in rats after po administration of the compound; format: functional
[5] = tested on: Rattus norvegicus; assay: In vivo suppression of the conditioned avoidance response (CAR) in rats after ip administration of the compound; format: functional

SMILES | Ki [1] [nM] | other results
Oc1nc2cccc(N3CCN(Cc4cc(-c5ccc(F)cc5)ccn4)CC3)c2o1 | 16 | ED50 [2]: 0.1 mg/kg; ED50 [3]: > 30 mg/kg; ED50 [4]: < 10 mg/kg
COc1cccc(-c2cccc(CN3CCN(c4cccc5[nH]c(=O)oc45)CC3)c2)c1 | 21 | –
Oc1nc2cccc(N3CCN(Cc4cccc(-c5ccsc5)c4)CC3)c2o1 | 17 | ED50 [2]: 0.2 mg/kg; ED50 [5]: > 20 mg/kg; ED50 [3]: > 30 mg/kg
Oc1nc2cccc(N3CCN(Cc4cccc(-c5ccc(F)cc5)n4)CC3)c2o1 | 200 | –
N#Cc1ccccc1-c1cccc(CN2CCN(c3cccc4nc(O)oc34)CC2)c1 | 32 | –
COc1ccccc1N1CCN(CCNC(=O)c2ccc(F)cc2)CC1 | 1 | –
O=c1[nH]c2cccc(N3CCN(Cc4ccnc(-c5ccc(F)cc5)c4)CC3)c2o1 | 21 | –
O=c1[nH]c2cccc(N3CCN(Cc4cccc(-c5cccs5)c4)CC3)c2o1 | 32 | –
O=C(NCCN1CCN(c2cccc3nc(O)oc23)CC1)c1ccc(F)cc1 | 7.9 | –
N#Cc1cccc(-c2cccc(CN3CCN(c4cccc5nc(O)oc45)CC3)c2)c1 | 23 | –
CN1CCN(C2=Nc3cc(Cl)ccc3Nc3ccccc32)CC1 [CLOZAPINE] | – | ED50 [2]: 22 mg/kg; ED50 [4]: 32 mg/kg
Fc1ccc(-c2ccc(CN3CCN(c4cccc5ccoc45)CC3)[nH]2)cc1 [ELOPIPRAZOLE] | 1.5 | –
O=C(CCCN1CCC(O)(c2ccc(Cl)cc2)CC1)c1ccc(F)cc1 [HALOPERIDOL] | – | ED50 [2]: 0.2 mg/kg; ED50 [4]: 0.3 mg/kg
Cc1nc2n(c(=O)c1CCN1CCC(c3noc4cc(F)ccc34)CC1)CCCC2 [RISPERIDONE] | – | ED50 [2]: 0.1 mg/kg; ED50 [4]: 1 mg/kg

The next lines start with results.

Ki [1] [nM] | SMILES | other results
35 | Cc1cccc(-c2cccc(CN3CCN(c4cccc5[nH]c(=O)oc45)CC3)c2)c1 | –
49 | O=C1COc2c(cccc2N2CCN(Cc3cccc(-c4ccccc4)c3)CC2)N1 | –
130 | Cn1c(=O)oc2c(N3CCN(Cc4cccc(-c5ccccc5)c4)CC3)cccc21 | –
14 | Oc1nc2cccc(N3CCN(Cc4cccc(-c5ccc(F)cc5)c4)CC3)c2o1 | –
85 | c1ccc(-c2cccc(CN3CCN(c4cccc5c4CCCN5)CC3)c2)cc1 | –
38 | c1ccc(-c2cccc(CN3CCN(c4cccc5ccoc45)CC3)c2)cc1 | –
26 | c1ccc(-c2cccc(CN3CCN(c4cccc5c4OCCN5)CC3)c2)cc1 | –
7.8 | Oc1nc2cccc(N3CCN(Cc4cncc(-c5ccccc5)c4)CC3)c2o1 | ED50 [2]: 0.1 mg/kg; ED50 [3]: 3 mg/kg; ED50 [4]: 0.4 mg/kg
41 | O=c1[nH]c2cccc(N3CCN(Cc4cc(-c5ccccc5)ccc4F)CC3)c2o1 | –
0.91 | c1ccc(-c2cccc(CN3CCN(c4cccc5c4OCCO5)CC3)c2)cc1 | –
42 | Oc1nc2cccc(N3CCN(Cc4cccc(-c5cccc(Cl)c5)c4)CC3)c2o1 | –
15 | c1ccc(-c2cccc(CN3CCN(c4cccc5c4OCO5)CC3)c2)cc1 | –
7.6 | Oc1nc2cccc(N3CCN(Cc4ccc(O)c(-c5ccccc5)c4)CC3)c2o1 | ED50 [2]: 7 mg/kg; ED50 [5]: 20 mg/kg; ED50 [3]: > 30 mg/kg
9.3 | O=c1[nH]c2cccc(N3CCN(Cc4cccc(-c5ccccc5)c4)CC3)c2o1 [BIFEPRUNOX] | ED50 [2]: 0.1 mg/kg; ED50 [3]: 10 mg/kg; ED50 [4]: 0.8 mg/kg
